Measurements reported in US10336732B2, “1-heterocyclyl isochromanyl compounds and analogs for treating CNS disorders” (Sunovion Pharmaceuticals Inc., priority 2015, dated 2019).

system: mice; assay: Neuropharmacological assay (SmartCube), behavioral signature of compound-treated mice; type: in vivo; settings: i.p. 15 min before behavioral test, most efficacious dose(s) of 3 doses
Summary of the method: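 Mice received compound i.p. in NMP/PEG/propylene glycol vehicle at 3 doses, 15 min before testing. Video-captured behavior was algorithmically compared with a reference-drug signature database.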

Structure (SMILES) | AD: ADHD (probability that behavioral signature matches class) | AG: analgesic (probability that behavioral signature matches class) | AX: anxiolytic (probability that behavioral signature matches class) | CE: cognitive enhancer (probability that behavioral signature matches class) | DP: anti-depressant (probability that behavioral signature matches class) | HA: hallucinogen (probability that behavioral signature matches class) | MS: mood stabilizer (probability that behavioral signature matches class) | PS: anti-psychotic (probability that behavioral signature matches class) | SD: sedative hypnotic (probability that behavioral signature matches class) | UN: uncharacterized CNS activity (probability that behavioral signature matches class)
Fc1ccc2c(c1)CO[C@@H]2[C@@H]1CCCN1 [Compound I-118, (S)-2-((S)-5-fluoro-1,3-dihydroisobenzofuran-1-yl)pyrrolidine] | + (LOQ ≤ + <5%) | ++ (5% ≤ ++ <25%) | +++ (25% ≤ +++ <50%) | ++ (5% ≤ ++ <25%) | ++ (5% ≤ ++ <25%) | + (LOQ ≤ + <5%) | ++ (5% ≤ ++ <25%) | +++ (25% ≤ +++ <50%) | ++ (5% ≤ ++ <25%) | + (LOQ ≤ + <5%)
Fc1ccc2c(c1)[C@@H]([C@H]1CCN1)OCC2 [Compound I-88, (R)-2-((S)-7-fluoroisochroman-1-yl)azetidine] | + (LOQ ≤ + <5%) | ++ (5% ≤ ++ <25%) | +++ (25% ≤ +++ <50%) | ++ (5% ≤ ++ <25%) | ++ (5% ≤ ++ <25%) | + (LOQ ≤ + <5%) | + (LOQ ≤ + <5%) | ++ (5% ≤ ++ <25%) | + (LOQ ≤ + <5%) | +++ (25% ≤ +++ <50%)
CN1CCC[C@H]1[C@@H]1OCCc2cc(F)ccc21 [Compound I-69, (S)-2-((R)-6-fluoroisochroman-1-yl)-1-methylpyrrolidine] | + (LOQ ≤ + <5%) | +++ (25% ≤ +++ <50%) | ++ (5% ≤ ++ <25%) | ++ (5% ≤ ++ <25%) | ++ (5% ≤ ++ <25%) | + (LOQ ≤ + <5%) | + (LOQ ≤ + <5%) | ++ (5% ≤ ++ <25%) | + (LOQ ≤ + <5%) | + (LOQ ≤ + <5%)
N#Cc1ccc2c(c1)CCO[C@H]2[C@H]1CCCN1 [Compound I-45, (R)-1-((R)-pyrrolidin-2-yl)isochroman-6-carbonitrile] | + (LOQ ≤ + <5%) | ++ (5% ≤ ++ <25%) | +++ (25% ≤ +++ <50%) | + (LOQ ≤ + <5%) | ++ (5% ≤ ++ <25%) | + (LOQ ≤ + <5%) | + (LOQ ≤ + <5%) | + (LOQ ≤ + <5%) | + (LOQ ≤ + <5%) | + (LOQ ≤ + <5%)
COc1cccc2c1[C@@H]([C@@H]1CCCN1)OCC2 [Compound I-48, (S)-2-((S)-8-methoxyisochroman-1-yl)pyrrolidine] | + (LOQ ≤ + <5%) | +++ (25% ≤ +++ <50%) | ++ (5% ≤ ++ <25%) | ++ (5% ≤ ++ <25%) | ++ (5% ≤ ++ <25%) | + (LOQ ≤ + <5%) | + (LOQ ≤ + <5%) | ++ (5% ≤ ++ <25%) | + (LOQ ≤ + <5%) | + (LOQ ≤ + <5%)
Cc1cccc2c1[C@@H]([C@@H]1CCCN1)OCC2 [Compound I-21, (S)-2-((S)-8-methylisochroman-1-yl)pyrrolidine] | + (LOQ ≤ + <5%) | ++ (5% ≤ ++ <25%) | ++ (5% ≤ ++ <25%) | + (LOQ ≤ + <5%) | ++ (5% ≤ ++ <25%) | + (LOQ ≤ + <5%) | + (LOQ ≤ + <5%) | ++ (5% ≤ ++ <25%) | + (LOQ ≤ + <5%) | +++ (25% ≤ +++ <50%)
Fc1ccc2c(c1)[C@@H]([C@@H]1CCCN1)OCC2 [Compound I-6, (2S)-2-((S)-7-fluoroisochroman-1-yl)pyrrolidine] | + (LOQ ≤ + <5%) | + (LOQ ≤ + <5%) | ++ (5% ≤ ++ <25%) | + (LOQ ≤ + <5%) | ++ (5% ≤ ++ <25%) | + (LOQ ≤ + <5%) | + (LOQ ≤ + <5%) | ++ (5% ≤ ++ <25%) | + (LOQ ≤ + <5%) | +++ (25% ≤ +++ <50%)
Fc1cccc2c1[C@@H]([C@H]1CCCN1)OCC2 [Compound I-3, (R)-2-((S)-8-fluoroisochroman-1-yl)pyrrolidine] | + (LOQ ≤ + <5%) | ++ (5% ≤ ++ <25%) | ++ (5% ≤ ++ <25%) | ++ (5% ≤ ++ <25%) | +++ (25% ≤ +++ <50%) | + (LOQ ≤ + <5%) | ++ (5% ≤ ++ <25%) | ++ (5% ≤ ++ <25%) | ++ (5% ≤ ++ <25%) | +++ (25% ≤ +++ <50%)

same assay, conditions: i.p. 15 min before behavioral test, most efficacious dose(s) of 3 doses

Structure (SMILES) | XG: anxiogenic (probability that behavioral signature matches class)
Fc1ccc2c(c1)CO[C@@H]2[C@@H]1CCCN1 [Compound I-118, (S)-2-((S)-5-fluoro-1,3-dihydroisobenzofuran-1-yl)pyrrolidine] | + (LOQ ≤ + <5%)
Fc1ccc2c(c1)[C@@H]([C@H]1CCN1)OCC2 [Compound I-88, (R)-2-((S)-7-fluoroisochroman-1-yl)azetidine] | + (LOQ ≤ + <5%)
CN1CCC[C@H]1[C@@H]1OCCc2cc(F)ccc21 [Compound I-69, (S)-2-((R)-6-fluoroisochroman-1-yl)-1-methylpyrrolidine] | + (LOQ ≤ + <5%)
N#Cc1ccc2c(c1)CCO[C@H]2[C@H]1CCCN1 [Compound I-45, (R)-1-((R)-pyrrolidin-2-yl)isochroman-6-carbonitrile] | + (LOQ ≤ + <5%)
COc1cccc2c1[C@@H]([C@@H]1CCCN1)OCC2 [Compound I-48, (S)-2-((S)-8-methoxyisochroman-1-yl)pyrrolidine] | + (LOQ ≤ + <5%)
Cc1cccc2c1[C@@H]([C@@H]1CCCN1)OCC2 [Compound I-21, (S)-2-((S)-8-methylisochroman-1-yl)pyrrolidine] | + (LOQ ≤ + <5%)
Fc1ccc2c(c1)[C@@H]([C@@H]1CCCN1)OCC2 [Compound I-6, (2S)-2-((S)-7-fluoroisochroman-1-yl)pyrrolidine] | + (LOQ ≤ + <5%)
Fc1cccc2c1[C@@H]([C@H]1CCCN1)OCC2 [Compound I-3, (R)-2-((S)-8-fluoroisochroman-1-yl)pyrrolidine] | + (LOQ ≤ + <5%)
